For 6 compounds, mutagenic call results are on record in PubChem BioAssay AID1259407 (Chemical Carcinogenesis Research Information System (CCRIS), 2018).

Activity calls are given as the source filed them. No rule for the calls is given here.

For the data set, the system named is CCRIS mutagenicity, Ames/micronucleus/aberration tests. The data set is described as follows: CCRIS mutagenicity studies. From the text: The CCRIS database contains chemical records with carcinogenicity, mutagenicity, tumor promotion, and tumor inhibition test results. It was developed by the National Cancer Institute (NCI). Data are derived from studies cited in primary journals, current awareness tools, NCI reports, and other sources. Test results have been reviewed by experts in carcinogenesis and mutagenesis.
CCRIS provides historical information from the years 1985 - 2011. It is no longer updated.
This is an archive assay for CCRIS mutagenicity studies.

Setting [1] is: End Point: IN VITRO CHROMOSOMAL ABERRATIONS, Test System: CHL CELLS, Metabolic Activation: RAT, LIVER, S-9, SODIUM PHENOBARBITAL AND 5,6-BENZOFLAVONE
Where [2] appears, read: Test System: AMES SALMONELLA TYPHIMURIUM, Strain/Indicator: TA98, Metabolic Activation: NONE, Method: PREINCUBATION
[3] abbreviates: Test System: AMES SALMONELLA TYPHIMURIUM, Strain/Indicator: TA100, Metabolic Activation: NONE, Method: PREINCUBATION

Turning to `CC(C)(Br)C(=O)O`, the mutagenic call runs as follows: (End Point: IN VITRO CHROMOSOMAL ABERRATIONS, Test System: CHL CELLS, Metabolic Activation: NONE) “active; positive (structural changes)”; under setting [1], “active; positive (structural changes)”.

For `Cc1ccc2nc3c(ccc4ccccc43)cc2c1`, the mutagenic call (Test System: AMES SALMONELLA TYPHIMURIUM, Strain/Indicator: TA97A, Metabolic Activation: NONE, Method: PREINCUBATION) was “inactive; negative”; the mutagenic call under setting [2] is “inactive; negative”; the mutagenic call under setting [3] was “active; positive”; the mutagenic call (Test System: AMES SALMONELLA TYPHIMURIUM, Strain/Indicator: TA102, Metabolic Activation: NONE, Method: PREINCUBATION) was “active; positive”.

With `Cn1c2c3ccccc3nc-2cc2ccccc21`, the mutagenic call (End Point: IN VITRO MICRONUCLEUS, Test System: CHINESE HAMSTER V-79-MZ, Metabolic Activation: NONE) was “active; positive” and the mutagenic call (Test System: CHINESE HAMSTER V-79-MZ, Strain/Indicator: V-79 MZ (HPRT)/6-THIOGUANINE, Metabolic Activation: NONE) is “inactive; negative”.

As for `COC(=O)Nc1nc2ccc(S(=O)c3ccccc3)cc2[nH]1` (stereo unspecified), the mutagenic call is “active; positive (structural changes and ploidy)” (End Point: In vivo chromosomal aberrations, Test System: Bone marrow cells, Species: Mouse, Strain/Sex: Swiss /Female, Route: Oral); “active; positive (structural changes and ploidy)” (End Point: In vivo chromosomal aberrations, Test System: Bone marrow cells, Species: Mouse, Strain/Sex: Swiss /Male, Route: Oral); “active; positive (ploidy)” (End Point: In vivo chromosomal aberrations, Test System: Spermatocytes, Species: Mouse, Strain/Sex: Swiss /Male, Route: Oral).

Turning to `CCOS(=O)(=O)OCC`, the mutagenic call is, setting by setting: under setting [1], “active; positive (structural changes)”; (End Point: In vitro micronucleus, Test System: Chinese Hamster Ovary (CHO-WBL) cells, Metabolic Activation: None) “active; positive (p<0.01)”; under setting [2], “active; positive”; (Test System: AMES SALMONELLA TYPHIMURIUM, Strain/Indicator: TA98, Metabolic Activation: RAT LIVER S-9, PHENOBARBITAL AND BETA-NAPHTHOFLAVONE, Method: PREINCUBATION) “active; positive”; under setting [3], “active; positive”; (Test System: AMES SALMONELLA TYPHIMURIUM, Strain/Indicator: TA100, Metabolic Activation: NONE, Method: STANDARD PLATE) “active; positive”. The mutagenic call reads like this: (Test System: AMES SALMONELLA TYPHIMURIUM, Strain/Indicator: TA100, Metabolic Activation: RAT LIVER S-9, PHENOBARBITAL AND BETA-NAPHTHOFLAVONE, Method: PREINCUBATION) “active; positive”; (Test System: AMES SALMONELLA TYPHIMURIUM, Strain/Indicator: TA1535, Metabolic Activation: NONE, Method: PREINCUBATION) “active; positive”; (Test System: AMES SALMONELLA TYPHIMURIUM, Strain/Indicator: TA1535, Metabolic Activation: NONE, Method: STANDARD PLATE) “active; positive”; (Test System: AMES SALMONELLA TYPHIMURIUM, Strain/Indicator: TA1535, Metabolic Activation: RAT LIVER S-9, PHENOBARBITAL AND BETA-NAPHTHOFLAVONE, Method: PREINCUBATION) “active; positive”; (Test System: AMES SALMONELLA TYPHIMURIUM, Strain/Indicator: TA1537, Metabolic Activation: NONE, Method: PREINCUBATION) “active; positive”; (Test System: AMES SALMONELLA TYPHIMURIUM, Strain/Indicator: TA1537, Metabolic Activation: RAT LIVER S-9, PHENOBARBITAL AND BETA-NAPHTHOFLAVONE, Method: PREINCUBATION) “active; positive”. Also, the mutagenic call is “active; positive” (Test System: CHINESE HAMSTER OVARY, Strain/Indicator: CHO-K1-BH4 (HGPRT), Metabolic Activation: NONE, Method: STANDARD PLATE); “active; positive” (Test System: CHINESE HAMSTER V-79, Strain/Indicator: V-79/6-THIOGUANINE, Metabolic Activation: NONE, Method: FLASK ASSAY); “active; positive” (Test System: E.COLI, Strain/Indicator: WP2UVRA, Metabolic Activation: NONE, Method: PREINCUBATION); “active; positive” (Test System: E.COLI, Strain/Indicator: WP2UVRA, Metabolic Activation: RAT LIVER S-9, PHENOBARBITAL AND BETA-NAPHTHOFLAVONE, Method: PREINCUBATION).

For the compound `CCN(CC)C(=S)SSC[C@H](NC(=O)CC[C@H](N)C(=O)O)C(=O)NCC(=O)O`, the mutagenic call under setting [2] is “inactive; negative”; the mutagenic call (Test System: AMES SALMONELLA TYPHIMURIUM, Strain/Indicator: TA98, Metabolic Activation: RAT, LIVER, S-9, AROCLOR 1254, Method: PREINCUBATION) is “inactive; negative”; the mutagenic call under setting [3] was “inactive; negative”; the mutagenic call (Test System: AMES SALMONELLA TYPHIMURIUM, Strain/Indicator: TA100, Metabolic Activation: RAT, LIVER, S-9, AROCLOR 1254, Method: PREINCUBATION) is “inactive; negative”.
